Assay results taken from US5750546A, “2-(2, 3, 5, 6-tetrafluoro-4-pyridyl)-1, 2, 5-thiadiazolidin-3-one 1, 1-dioxides and compositions and method of use thereof” (Sanofi Winthrop, Inc., priority 1994, dated 1998).

Biological target: T1, human leukocyte elastase (Homo sapiens, UniProt P08246)
T1 sequence (P08246 30-267): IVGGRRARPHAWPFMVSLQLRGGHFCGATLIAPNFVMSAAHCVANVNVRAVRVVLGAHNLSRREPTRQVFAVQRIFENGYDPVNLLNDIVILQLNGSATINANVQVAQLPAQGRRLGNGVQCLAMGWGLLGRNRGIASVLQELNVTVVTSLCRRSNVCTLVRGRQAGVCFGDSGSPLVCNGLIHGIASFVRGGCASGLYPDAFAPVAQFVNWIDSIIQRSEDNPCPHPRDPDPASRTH
Assay: human leukocyte elastase inhibition assay (progress curves, MeOSuc-Ala-Ala-Pro-Val-pNA substrate)
Format: biochemical
Settings: in vitro, pH 7.8 at 25° C., absorbance 410 nm, read-out: Ki, human leukocyte elastase inhibitory activity
Procedure: The test compound (inhibitor) is dissolved in DMSO in a vial to produce an inhibitor stock solution which has a concentration in the range of 200-1000μM. The inhibitor stock solution is diluted (1:4, 1:16 and 1:64) into assay vials (vials 1, 2 and 3 respectively) containing 2.4 mL of buffer solution (50 mM N-[2-hydroxyethyl] piperazine-N'-[2-ethanesulfonic acid]/NaOH, 500 mM NaCl, pH 7.8 at 25° C.) and DMSO is added so that the total volume in each vial is 3.2 mL. 70 μL, 50 μL, 35 μL and 25 μL of inhibitor from assay vial 1 is placed into the first four wells of a 96-well microtiter plate and each well is made up to 90 μL total volume with the addition of a 25% DMSO/buffer solution. […]
The 96-well microtiter plate is placed into a Microplate Reader #89815A spectrophotometer and 110 μL of the enzyme solution (prepared as follows: a mixture of 20 mL of buffer solution and 20 mg of bovine serum albumen is gently vortexed in a scintillation vial and 5 μL HLE stock solution (1 mg/mL dissolved in deionized water) is added) is added simultaneously to each of the 16 wells. Each of the solutions in the wells is throughly mixed and then the time-dependent absorbance data is collected at an absorbance of 410 nm until the assay is complete. […]
A plot of the absorbance versus time data thus obtained affords progress curves the final slope of which is equal to the final steady-state velocities (VF). […]

| Ki | SMILES |
| --- | --- |
| > 100 nM | CC(C)CCC1C(=O)N(c2c(F)c(F)nc(F)c2F)S(=O)(=O)N1C (centres unmarked) [2(h), 2-(2,3,5,6-tetrafluoro-4-pyridyl)-5-methyl-4-(3-methylbutyl)-1,2,5-thiadiazolidin-3-one 1,1-dioxide] |
| 10 nM | CCCC1C(=O)N(c2c(F)c(F)nc(F)c2F)S(=O)(=O)N1C (centres unmarked) [Example 1(g), 2-(2,3,5,6-tetrafluoro-4-pyridyl)-5-methyl-4-propyl-1,2,5-thiadiazolidin-3-one 1,1-dioxide] |
